How the values were obtained:
Format in all cases: cell-based
IGROV-ET = test: Inhibition of cell growth by colorimetric SRB assay, IGROV-ET; conditions: Homo sapiens, IGROV-ET, 48 hours exposure; for CC50: cell killing, read-out: LC50 (the source's name); for IC (total growth inhibition): read-out: TGI
Description: (§1) The finality of these assays is to interrupt the growth of a “in vitro” tumor cell culture by means a continued exhibition of the cells to the sample to be testing.
(§2) Inhibition of Cell Growth by Colorimetric Assay.
(§3) A colorimetric type of assay, using sulforhodamine B (SRB) reaction has been adapted for a quantitative measurement of cell growth and viability (following the technique described by P. A. Skehan, et al., J. Natl. CancerInst. 1990, 82, 1107-1112).
(§4) This form of assay employs 96 well cell culture microplates of 9 mm diameter (T. Mosmann et al., J. of Immuological Methods 1983, 65, 55-63; G. T. Faircloth et al., J. of Tissue and Culture Methods 1988, 11, 201-205). Most of the cell lines are obtained from American Type Culture Collection (ATCC) derived from different human cancer types.
(§5) Cells are maintained in RPMI 1640 10% FBS, supplemented with 0.1 g/L penicillin and 0.1 g/L streptomycin sulfate and then incubated at 37° C., 5% CO2 and 98% humidity. For the experiments, cells were harvested from subconfluent cultures using trypsin and resuspended in fresh medium before plating.
(§6) Cells are seeded in 96 well microtiter plates, at 5×10^3 cells per well in aliquots of 195 μL medium, and they are allowed to attach to the plate surface by growing in drug free medium for 18 hours. Afterward, samples are added in aliquots of 5 μL in a ranging from 10 to 10^−8 μg/mL, dissolved in DMSO/EtOH/PBS (0.5:0.5:99). After 48 hours exposure, the antitumor effect are measured by the SRB methodology: cells are fixed by adding 50 μL of cold 50% (wt/vol) trichloroacetic acid (TCA) and incubated for 60 minutes at 4° C. Plates are washed with deionizer water and dried. One hundred μl of SRB solution (0.4% wt/vol in 1% acetic acid) is added to each microliter well and incubated for 10 minutes at room temperature. Unbound SRB is removed by washing with 1% acetic acid. Plates are air dried and bound stain is solubilized with Tris buffer. Optical densities are read on a automated spectrophotometric plate reader at a single wavelength of 490 nm.
(§7) The values for mean +/−SD of data from triplicate wells are calculated. Some parameters for cellular responses can be calculated: GI=growth inhibition, TGI=total growth inhibition (cytostatic effect) and LC=cell killing (cytotoxic effect).

LoVo-Dox = test: Inhibition of cell growth by colorimetric SRB assay, LOVO-DOX; conditions: Homo sapiens, LOVO-DOX, 48 hours exposure; for LC50 (concentration for 50% cell killing): read-out: LC50; for IC (total growth inhibition): read-out: TGI
Description: as §1, §2, §3, §4, §5, §6, §7

HeLa-APL = test: Inhibition of cell growth by colorimetric SRB assay, HELA-APL; conditions: Homo sapiens, HELA-APL, 48 hours exposure; for CC50: cell killing, read-out: LC50 (the source's name)
Description: as §1, §2, §3, §4, §5, §6, §7

PANC-1 = test: Inhibition of cell growth by colorimetric SRB assay, PANC-1; conditions: Homo sapiens, PANC-1, 48 hours exposure; for CC50: cell killing, read-out: LC50 (the source's name); for IC (total growth inhibition): read-out: TGI
Description: as §1, §2, §3, §4, §5, §6, §7

HeLa = test: Inhibition of cell growth by colorimetric SRB assay, HELA; conditions: Homo sapiens, HELA, 48 hours exposure; for CC50: cell killing, read-out: LC50 (the source's name); for IC (total growth inhibition): read-out: TGI
Description: as §1, §2, §3, §4, §5, §6, §7

DU-145 = test: Inhibition of cell growth by colorimetric SRB assay, DU-145; conditions: Homo sapiens, DU-145, 48 hours exposure; for CC50: cell killing, read-out: LC50 (the source's name); for IC (total growth inhibition): read-out: TGI
Description: as §1, §2, §3, §4, §5, §6, §7

LoVo = test: Inhibition of cell growth by colorimetric SRB assay, LOVO; conditions: Homo sapiens, LOVO, 48 hours exposure; for LC50: cell killing, read-out: LC50; for IC (total growth inhibition): read-out: TGI
Description: as §1, §2, §3, §4, §5, §6, §7

A-549 = test: Inhibition of cell growth by colorimetric SRB assay, A-549; conditions: Homo sapiens, A549, A-549, 48 hours exposure; for CC50: cell killing, read-out: LC50 (the source's name); for IC (total growth inhibition): read-out: TGI
Description: as §1, §2, §3, §4, §5, §6, §7

SK-BR-3 = test: Inhibition of cell growth by colorimetric SRB assay, SK-BR-3; conditions: SK-BR-3, 48 hours exposure; for GI50 / CC50: Homo sapiens; for CC50: cell killing, read-out: LC50 (the source's name); for TGI: total growth inhibition
Description: as §1, §2, §3, §4, §5, §6, §7

SK-MEL-28 = test: Inhibition of cell growth by colorimetric SRB assay, MEL-28; conditions: Homo sapiens, SK-MEL-28, MEL-28, 48 hours exposure; for CC50: cell killing, read-out: LC50 (the source's name); for IC (total growth inhibition): read-out: TGI
Description: as §1, §2, §3, §4, §5, §6, §7

IGROV = test: Inhibition of cell growth by colorimetric SRB assay, IGROV; conditions: Homo sapiens, 48 hours exposure
Description: as §1, §2, §3, §4, §5, §6, §7

HT-29 = test: Inhibition of cell growth by colorimetric SRB assay, HT-29; conditions: Homo sapiens, HT-29, 48 hours exposure
Description: as §1, §2, §3, §4, §5, §6, §7

[1] = cell killing, read-out: LC50 (the source's name)
[2] = total growth inhibition, read-out: TGI

| Compound | GI50 (IGROV-ET) [µM] | CC50 (IGROV-ET) [µM] | IC (total growth inhibition) (IGROV-ET) [µM] | GI50 (LoVo-Dox) [µM] | LC50 (concentration for 50% cell killing) (LoVo-Dox) [µM] | IC (total growth inhibition) (LoVo-Dox) [µM] | CC50 (HeLa-APL) [µM] | GI50 (PANC-1) [µM] | CC50 (PANC-1) [µM] | IC (total growth inhibition) (PANC-1) [µM] | GI50 (HeLa) [µM] | CC50 (HeLa) [µM] | IC (total growth inhibition) (HeLa) [µM] | GI50 (DU-145) [µM] | CC50 (DU-145) [µM] | IC (total growth inhibition) (DU-145) [µM] | GI50 (LoVo) [µM] | LC50 (LoVo) [µM] | IC (total growth inhibition) (LoVo) [µM] | GI50 (A-549) [µM] | other results |
| --- | --- | --- | --- | --- | --- | --- | --- | --- | --- | --- | --- | --- | --- | --- | --- | --- | --- | --- | --- | --- | --- |
| C/C=C\[C@H](C)[C@H]1OC1(C)[C@@H](O[Si](C)(C)C(C)(C)C)[C@@H](CO[Si](C)(C)C(C)(C)C)C(=O)[C@@H](CO[Si](C)(C)C(C)(C)C)[C@@H](CC(=O)CC)O[Si](C)(C)C(C)(C)C (some centres unmarked) [Compound 30b] | 8.27 | 12.1 | 12.1 | 12.1 | 12.1 | 12.1 | 12.1 | 12.1 | 12.1 | 12.1 | 12.1 | 12.1 | 12.1 | 12.1 | 12.1 | 12.1 | 6.88 | 12.1 | 12.1 | 12.1 | CC50 (A-549): 12.1 µM; IC (total growth inhibition) (A-549): 12.1 µM; GI50 (SK-BR-3): 12.1 µM; CC50 (SK-BR-3): 12.1 µM; TGI (SK-BR-3): 1.21E−05 Molar; GI50 (SK-MEL-28): 12.1 µM; CC50 (SK-MEL-28): 12.1 µM; IC (total growth inhibition) (SK-MEL-28): 12.1 µM |
| C/C=C\[C@H](C)[C@H]1OC1(C)[C@@H](O[Si](C)(C)C(C)(C)C)[C@@H](CO[Si](C)(C)C(C)(C)C)C(=O)[C@@H](CO[Si](C)(C)C(C)(C)C)[C@H](CC(=O)CC)O[Si](C)(C)C(C)(C)C (some centres unmarked) [Compound 30a] | 8.27 | 12.1 | 12.1 | 12.1 | 12.1 | 12.1 | 12.1 | 12.1 | 12.1 | 12.1 | 12.1 | 12.1 | 12.1 | 12.1 | 12.1 | 12.1 | 6.37 | 12.1 | 12.1 | 12.1 | CC50 (A-549): 12.1 µM; IC (total growth inhibition) (A-549): 12.1 µM; GI50 (SK-BR-3): 8.56 µM; CC50 (SK-BR-3): 12.1 µM; TGI (SK-BR-3): 1.21E−05 Molar; GI50 (SK-MEL-28): 12.1 µM; CC50 (SK-MEL-28): 12.1 µM; IC (total growth inhibition) (SK-MEL-28): 12.1 µM |
| C/C=C\[C@H](C)[C@H]1OC1(C)[C@@H](O)[C@@H](CO)C(=O)[C@@H](CO)[C@H](O)CC(=O)CC (some centres unmarked) [3d + 4d] | 17.1 | 26.8 | 26.8 | 26.8 | 26.8 | 26.8 | 26.8 | 13.5 | 26.8 | 26.8 | 26.8 | 26.8 | 26.8 | 26.8 | 26.8 | 26.8 | 26.8 | 26.8 | 26.8 | 26.8 | GI50 (IGROV): 20.5 µM; CC50 (IGROV; [1]): 26.8 µM; IC (total growth inhibition) (IGROV; [2]): 26.8 µM; GI50 (HeLa-APL; read-out: GI50): 26.8 µM; IC (total growth inhibition) (HeLa-APL; [2]): 26.8 µM; CC50 (A-549): 26.8 µM; IC (total growth inhibition) (A-549): 26.8 µM; GI50 (SK-BR-3): 20.5 µM; CC50 (SK-BR-3): 26.8 µM; TGI (SK-BR-3): 2.68E−05 Molar; GI50 (SK-MEL-28): 26.8 µM; CC50 (SK-MEL-28): 26.8 µM; IC (total growth inhibition) (SK-MEL-28): 26.8 µM; GI50 (HT-29): 26.8 µM; CC50 (HT-29; [1]): 26.8 µM; IC (total growth inhibition) (HT-29; [2]): 26.8 µM |
